Reference: patent US8288363B2, “Medicaments for anti-herpes virus treatments” (ASE & BIO, priority 2006, dated 2012)

What was measured:
Assay in all cases: Anti-herpes activity, viability of infected vero cells (neutral red)
Settings in all cases: incubation time 72 hours
[1] = tested on: acyclovir-resistant strain HSV-2R; format: cell-based, herpes simplex virus 2
Method: (§1) This method is based on the principle that living cells absorb neutral red, which is a vital stain. The optical density of the medium was measured at the maximum absorption wavelength of neutral red, that is to say 540 nm, using a spectrophotometer (SpectraCount™, microplate photometer, Packard). The optical density at 540 nm is proportional to the number of living cells in an infected culture (McLaren et al., Antiviral Research, 1983; 3: 223-234 and Langlois et al., Standardization, 1986, 14: 201-211).
(§2) The effective concentration (EC 50%), that is to say the concentration of the sulphated polysaccharide which enables infection of 50% of the cells of a culture to be inhibited, was measured for each viral strain.
(§3) The determination of the EC50 was carried out in 96-well microtitre plates in accordance with the following protocol. Vero cells are seeded at a cell density of 3.5·10^4 cells/well in 100 μl of MEM medium containing 8% FCS. For each viral suspension defined by its MOI: • the negative control column was filled with 100 μl of MEM medium with 8% FCS, • the virus control column was filled with 50 μl of viral suspension having the required MOI and with 50 μl of MEM medium with 8% FCS, • the PS3 control column was filled with 50 μl of PS3 having the desired concentration range or with 50 μl of acyclovir (Zovirax 0.05-5 μg/ml • finally, all the other columns were filled successively with 50 μl of PS3 having the required concentration range or with 50 μl of acyclovir (Zovirax 0.05-5 μg/ml) and with 50 μl of the viral suspension having the desired MOI.
(§4) The EC50 corresponding to the concentration which enables the cytopathic effect of the virus to be reduced by 50% was calculated in accordance with the following formula: […]
(§5) The anti-herpes activity of PS3 was evaluated and compared on each viral suspension of HSV-1, HSV-1R, HSV-2 and HSV-2R defined by an MOI of 0.01 ID50/cell for a cell concentration of 350,000 cells/ml, after incubation times of 48 and 72 hours.
(§6) This series of experiments was carried out applying the protocol enabling the EC50 to be determined, as described in Example 3.
(§7) The therapeutic indices (TI) of PS3, as well as three other reference products, that is to say acyclovir, dextran sulphate and phycarine, were determined in parallel for each viral strain.
(§8) The therapeutic index (TI) represents the ratio between the maximum non-toxic dose (or a dose inducing a quantified toxicity) and the dose inducing a favourable pharmacological effect.

HSV-2 = format: cell-based, herpes simplex virus 2
Method: as §1, §2, §3, §4, §5, §6, §7, §8

[2] = tested on: acyclovir-resistant strain HSV-1R; format: cell-based, herpes simplex virus 1
Method: as §1, §2, §3, §4, §5, §6, §7, §8

HSV-1 = format: cell-based, herpes simplex virus 1
Method: as §1, §2, §3, §4, §5, §6, §7, §8

## dextran sulphate [reference compound]
[1]
  Therapeutic index HSV-2R: >4,545
HSV-2
  Therapeutic index HSV-2: >3,571
[2]
  Therapeutic index HSV-1R: >641
HSV-1
  Therapeutic index HSV-1: >868
